Test results as given in patent US11358940B2, “K-Ras modulators” (THE REGENTS OF THE UNIVERSITY OF CALIFORNIA, priority 2017, dated 2022).

Experiments:
[1] = target: T1, GppNHp loaded KRAS4b(1-169) H95C/C118S mutant (Homo sapiens, UniProt P01116, C118S/H95C); assay: MALDI-TOF percentage labeling of C95, GppNHp-loaded protein; assay type: binding; settings: for level of covalent labeling to C95 (percent of labeling), GppNHp, 3 h: 3 h incubation; for level of covalent labeling to C95 (percent of labeling), GppNHp, 6 h: 6 h incubation; for level of covalent labeling to C95 (percent of labeling), GppNHp, 24 h: 24 h incubation
T1 construct: loaded KRAS4b(1-169) H95C/C118S mutant
Protocol: (§1) Table 1 is a table summarizing levels of covalent labeling to C95 as analyzed by MALDI-TOF MS for a series of synthesized compounds. […] Both species, GDP or nonhydrolyzable analogue of GTP—GppNHp-loaded KRAS4b H95C/C118S, were then reacted with a panel of epoxides and analyzed by MALDI-TOF MS to assess level of covalent modification to C95 after 3 h, 6 h, or 24 h of incubation with the protein. All R isomers show enhanced activity compared to S isomers.
150 to 300 μM solution of GDP loaded protein in KRAS buffer was prepared (20 mM HEPES, 150 mM NaCl, 1 mM MgCl2, 0.05 mM TCEP, pH 7.3). To this was added vigorously 1500×molar excess of 1 M ammonium sulfate in KRAS buffer, and the combination mixed gently by inverting tube. Next was prepared 250 mM solution of GppNHp (150 molar excess of GppNHp to protein; keep it on ice). To the protein was pipetted 10% of prepared GppNHp solution, then suspension of alkaline phosphatase from calf intestine on agarose was added (Sigma-Aldrich, P0726) to have 2 units of enzyme per each mg of protein. The reaction mixture was incubated at room temperature, rotating end-over for 1 h 30 min. The alkaline phosphatase was removed on agarose beads by filtering solution to a new vial using Millex-GP syringe filter. Remaining solution of GppNHp was added and incubated for additional 45 min. At the end of the exchange the protein was filtered again, placed on ice, and purified on NGC medium-pressure chromatography system (Bio-Rad). Five in-lane connected desalting columns (5×GE Healthcare HiTrap Desalting columns 5 ml, 17-1408-01) were used with isocratic elution of KRAS buffer at 4 ml/min. The protein elution was monitored at 280 nm. The concentration of final protein was evaluated by NanoDrop 2000 spectrophotometer (Thermo Fisher) using molar attenuation coefficient ε=19685 l·mol^−1·cm^−1. The quality of the protein was confirmed by MALDI and the exchange rate was assessed by HPLC based assay.
(§2) Example 18: Percentage Labeling Determination for Compounds Targeting KRAS4b Residue 95 by Matrix Assisted Laser Desorption Ionization-Time of Flight Mass Spectrometry (MALDI-TOF)
(§3) The assay uses four tool proteins: • Guanosine diphosphate (GDP) loaded KRAS4b(1-169) H95C/C118S mutant • 5′-Guanylyl imidodiphosphate (GppNHp) loaded KRAS4b(1-169) H95C/C118S mutant • GDP loaded KRAS4b(1-169) C118S mutant • GppNHp loaded KRAS4b(1-169) C118S mutant
(§4) 20 μM Solution of protein in 20 mM HEPES, 150 mM NaCl, 1 mM MgCl2, pH 7.3 buffer was prepared freshly before assay. 20 μl Aliquots of protein were dispensed on 384 well polypropylene plate, then tested compounds (0.8 μl, 10 mM in DMSO) were added to appropriate wells. For each reaction/assay three blank and three control samples were prepared by mixing 20 μl of protein solution with 0.8 μl DMSO or 10 mM standards (compounds 994566 and FB9). The wells content was carefully mixed by aspiration, then plate was sealed by adhesive cover, centrifuged at 2000 g for 1 minute and kept in dark at room temperature for 3, 6 (or 8) and 24 h.
(§5) Before each assay MALDI target (Bruker MPT 384 ground steel BC) was pre-treated by pipetting on each spot 1 μl of saturated sinapinic acid in acetonitrile (ACN).
(§6) After 24 h reaction, 2 μl of reaction mixtures were pipetted out into 20 μl MALDI matrix solution (saturated solution of sinapinic acid in 1:1 ACN:water solution containing 0.75% trifluoroacetic acid (TFA)) deposited on 384 well polypropylene plate. Resulting solution was mixed by aspiration, centrifuged at 2000 g for 1 minute, then 2 μl aliquots were dispensed on pre-treated MALDI target using Beckman Coulter Biomek FX^P 96/Span-8 Laboratory Automation Workstation. Finally, the MALDI target was dried under mild vacuum to produce spots with fine crystalline structure.
MALDI-TOF measurements were performed on Bruker Daltonics ultraflex III TOF-TOF mass spectrometer using linear mode and mass range from 5 to 45 kDa. […]

[2] = target: T2, GDP loaded KRAS4b(1-169) H95C/C118S mutant (Homo sapiens, UniProt P01116, C118S/H95C); assay: MALDI-TOF percentage labeling of C95, GDP-loaded protein; assay type: binding; settings: for level of covalent labeling to C95 (percent of labeling), GDP, 3 h: 3 h incubation; for level of covalent labeling to C95 (percent of labeling), GDP, 6 h: 6 h incubation; for level of covalent labeling to C95 (percent of labeling), GDP, 24 h: 24 h incubation
T2 construct: loaded KRAS4b(1-169) H95C/C118S mutant
Protocol: as §1, §2, §3, §4, §5, §6
MALDI-TOF measurements were performed on Bruker Daltonics ultraflex III TOF-TOF mass spectrometer using linear mode and mass range from 5 to 45 kDa. Detector gain was set to ×9 (1734 V), sample rate to 1 GS/s, smart beam parameter set: 3_medium was used, and the laser frequency was 66.7 Hz. Spectra were automatically collected using custom AutoXecute method. Laser power was auto-adjusted using fuzzy control. The peak selection range was set to be between 19000 and 20200 Da. Peak evaluation uses half width parameter set to be smaller than 30 Da. Fuzzy control used Proteins/Oligonucleotides protocol with minimum half width ⅙ times above threshold. Up to 1500 shots were collected in 500 shot steps. Dynamic termination was implemented to finish data collection when peak intensity was reaching value of 1200 [a.u.].
Spectra were smoothed by SavitzkyGolay algorithm using 5 m/z width and three cycles. Centroid peak detection algorithm was used with signal to noise threshold set to 4, relative intensity threshold 2%, minimum intensity threshold 20 [a.u.], peak width 10 m/z and TopHat baseline subtraction. Peak intensity and area under the peak were evaluated and recorded for all peaks between 19248 Da and 20500 Da for H95/C118 mutant and 19285 Da and 20500 Da for C118 mutant respectively.
Percent of labeling was calculated using followed equation:
[formula] Similar results were obtained when peak area instead of peak height was used for calculations, however peak height method produced more reliable data in case of poor quality spectra.

SMILES | level of covalent labeling to C95 (percent of labeling), GppNHp, 3 h [1] [%] | level of covalent labeling to C95 (percent of labeling), GppNHp, 6 h [1] [%] | level of covalent labeling to C95 (percent of labeling), GppNHp, 24 h [1] [%] | level of covalent labeling to C95 (percent of labeling), GDP, 3 h [2] [%] | level of covalent labeling to C95 (percent of labeling), GDP, 6 h [2] [%] | level of covalent labeling to C95 (percent of labeling), GDP, 24 h [2] [%]
Cn1nc(C(=O)NCc2cn(C[C@H]3CO3)nn2)c2ccccc21 | 0 | 0 | 0 | 0 | 0 | 0
Cn1cc(C(=O)NCc2cn(C[C@@H]3CO3)nn2)c2cc(Br)ccc21 | 3 | 4 | 22 | 19 | 42 | 91
COc1ccc(Cl)cc1C(=O)N1CCCC(C(=O)N[C@@H](CC(C)C)C(=O)[C@@]2(C)CO2)C1 (stereo partly drawn) | 0 | 0 | 0 | 0 | 0 | 0
CC(C)Cc1ccc(C(C)C(=O)NCc2cn(C[C@@H]3CO3)nn2)cc1 (stereo partly drawn) | 0 | 2 | 17 | 36 | 73 | 98
Cn1nc(C(=O)NCc2cn(C[C@@H]3CO3)nn2)c2ccccc21 [drawing 514] | 0 | 3 | 13 | 3 | 9 | 38
O=C(NCc1cn(C[C@@H]2CO2)nn1)c1c[nH]c2ccccc12 | 2 | 4 | 25 | 7 | 18 | 72
Cn1nc(C(=O)NCc2cn(C[C@@H]3CO3)nn2)c2cc(Br)ccc21 | 0 | 4 | 19 | 23 | 52 | 96
CC(C)C[C@H](NC(=O)c1cn(C)c2ccc(Br)cc12)C(=O)[C@@]1(C)CO1 | 0 | 0 | 0 | 0 | 0 | 0
